Assay [1] deals with Pleiotropic ABC efflux transporter of multiple drugs (Saccharomyces cerevisiae S288c, UniProt P33302). The experiment in a line: Inhibition of Pdr5p-mediated rhodamine 6G transport in Saccharomyces cerevisiae MKPDR5h plasma membrane by spectrofluorometric assay.
Assay [2] addresses Pleiotropic ABC efflux transporter of multiple drugs (Saccharomyces cerevisiae S288c) (UniProt P33302). The experiment in a line: Inhibition of Saccharomyces cerevisiae MKPDR5h multidrug transporter Pdr5p assessed as concentration required to threefold increase in rate of fluorescence signal relative to absence of inhibitor by fluorescein diacetate based high-throughput screening spectrofluorometric assay.

Assay [3] concerns Saccharomyces cerevisiae. The assay can be described thus: Inhibition of Saccharomyces cerevisiae MKCDR1h multidrug transporter Cdr1p assessed as concentration required to threefold increase in rate of fluorescence signal relative to absence of inhibitor by fluorescein diacetate based high-throughput screening spectrofluorometric assay.
For assay [4], the target named is Snq2p (Saccharomyces cerevisiae (strain Lalvin EC1118 / Prise de mousse)(Baker's yeast)) (UniProt C8Z4T0). The experiment in a line: Inhibition of Saccharomyces cerevisiae MKSNQ2h multidrug transporter Snq2p assessed as concentration required to threefold increase in rate of fluorescence signal relative to absence of inhibitor by fluorescein diacetate based high-throughput screening spectrofluorometric assay.
Chain of Snq2p (Saccharomyces cerevisiae (strain Lalvin EC1118 / Prise de mousse)(Baker's yeast)) (C8Z4T0 as listed by the source): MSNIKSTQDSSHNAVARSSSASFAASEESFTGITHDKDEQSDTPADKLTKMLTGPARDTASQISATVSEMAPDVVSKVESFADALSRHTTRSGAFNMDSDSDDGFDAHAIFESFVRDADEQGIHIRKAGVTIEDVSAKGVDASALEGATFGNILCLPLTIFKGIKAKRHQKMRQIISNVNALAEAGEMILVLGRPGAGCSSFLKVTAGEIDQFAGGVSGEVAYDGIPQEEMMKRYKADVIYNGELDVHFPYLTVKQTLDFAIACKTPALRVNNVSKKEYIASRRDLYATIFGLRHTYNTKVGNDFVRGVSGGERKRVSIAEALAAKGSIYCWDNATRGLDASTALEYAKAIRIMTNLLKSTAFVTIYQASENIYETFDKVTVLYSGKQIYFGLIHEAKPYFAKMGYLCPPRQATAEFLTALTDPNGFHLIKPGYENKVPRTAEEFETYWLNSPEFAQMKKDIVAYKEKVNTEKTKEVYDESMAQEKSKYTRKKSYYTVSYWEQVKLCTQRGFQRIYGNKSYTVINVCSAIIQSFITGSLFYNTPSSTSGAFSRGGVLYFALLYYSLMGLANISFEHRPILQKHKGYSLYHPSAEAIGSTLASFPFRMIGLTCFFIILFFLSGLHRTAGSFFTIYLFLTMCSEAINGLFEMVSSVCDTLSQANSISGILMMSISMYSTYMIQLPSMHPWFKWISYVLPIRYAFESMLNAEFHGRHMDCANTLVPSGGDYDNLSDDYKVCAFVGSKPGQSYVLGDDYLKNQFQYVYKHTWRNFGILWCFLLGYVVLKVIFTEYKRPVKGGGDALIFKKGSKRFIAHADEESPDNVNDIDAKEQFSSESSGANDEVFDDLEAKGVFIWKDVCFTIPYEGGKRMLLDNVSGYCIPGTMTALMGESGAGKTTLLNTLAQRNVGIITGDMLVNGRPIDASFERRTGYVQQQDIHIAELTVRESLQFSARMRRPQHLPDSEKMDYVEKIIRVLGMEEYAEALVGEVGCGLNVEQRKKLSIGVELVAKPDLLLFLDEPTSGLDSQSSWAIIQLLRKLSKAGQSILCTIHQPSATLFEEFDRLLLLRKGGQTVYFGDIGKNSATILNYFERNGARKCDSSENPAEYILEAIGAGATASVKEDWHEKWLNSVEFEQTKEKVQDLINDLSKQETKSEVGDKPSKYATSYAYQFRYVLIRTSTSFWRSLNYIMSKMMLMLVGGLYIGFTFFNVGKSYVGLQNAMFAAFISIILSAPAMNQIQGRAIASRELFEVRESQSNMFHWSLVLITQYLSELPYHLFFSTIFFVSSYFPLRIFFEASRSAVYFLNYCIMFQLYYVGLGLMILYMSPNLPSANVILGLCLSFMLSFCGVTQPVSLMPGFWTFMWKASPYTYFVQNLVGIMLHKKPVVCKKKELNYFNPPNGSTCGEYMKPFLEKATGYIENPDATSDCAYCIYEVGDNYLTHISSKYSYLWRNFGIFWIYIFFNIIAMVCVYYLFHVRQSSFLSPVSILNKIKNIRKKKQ

Assay [5] deals with Saccharomyces cerevisiae. The experiment in a line: Inhibition of Saccharomyces cerevisiae MKCDR1h multidrug transporter Cdr1p assessed as potentiation of ketoconazole-induced antifungal activity by Checkerboard assay.

The text below walks through data of ChEMBL document CHEMBL1687730, “New high-throughput screening assay to reveal similarities and differences in inhibitory sensitivities of multidrug ATP-binding cassette transporters” (Antimicrob Agents Chemother, 2009).

Chain of Pleiotropic ABC efflux transporter of multiple drugs (Saccharomyces cerevisiae S288c) (P33302 whole entry): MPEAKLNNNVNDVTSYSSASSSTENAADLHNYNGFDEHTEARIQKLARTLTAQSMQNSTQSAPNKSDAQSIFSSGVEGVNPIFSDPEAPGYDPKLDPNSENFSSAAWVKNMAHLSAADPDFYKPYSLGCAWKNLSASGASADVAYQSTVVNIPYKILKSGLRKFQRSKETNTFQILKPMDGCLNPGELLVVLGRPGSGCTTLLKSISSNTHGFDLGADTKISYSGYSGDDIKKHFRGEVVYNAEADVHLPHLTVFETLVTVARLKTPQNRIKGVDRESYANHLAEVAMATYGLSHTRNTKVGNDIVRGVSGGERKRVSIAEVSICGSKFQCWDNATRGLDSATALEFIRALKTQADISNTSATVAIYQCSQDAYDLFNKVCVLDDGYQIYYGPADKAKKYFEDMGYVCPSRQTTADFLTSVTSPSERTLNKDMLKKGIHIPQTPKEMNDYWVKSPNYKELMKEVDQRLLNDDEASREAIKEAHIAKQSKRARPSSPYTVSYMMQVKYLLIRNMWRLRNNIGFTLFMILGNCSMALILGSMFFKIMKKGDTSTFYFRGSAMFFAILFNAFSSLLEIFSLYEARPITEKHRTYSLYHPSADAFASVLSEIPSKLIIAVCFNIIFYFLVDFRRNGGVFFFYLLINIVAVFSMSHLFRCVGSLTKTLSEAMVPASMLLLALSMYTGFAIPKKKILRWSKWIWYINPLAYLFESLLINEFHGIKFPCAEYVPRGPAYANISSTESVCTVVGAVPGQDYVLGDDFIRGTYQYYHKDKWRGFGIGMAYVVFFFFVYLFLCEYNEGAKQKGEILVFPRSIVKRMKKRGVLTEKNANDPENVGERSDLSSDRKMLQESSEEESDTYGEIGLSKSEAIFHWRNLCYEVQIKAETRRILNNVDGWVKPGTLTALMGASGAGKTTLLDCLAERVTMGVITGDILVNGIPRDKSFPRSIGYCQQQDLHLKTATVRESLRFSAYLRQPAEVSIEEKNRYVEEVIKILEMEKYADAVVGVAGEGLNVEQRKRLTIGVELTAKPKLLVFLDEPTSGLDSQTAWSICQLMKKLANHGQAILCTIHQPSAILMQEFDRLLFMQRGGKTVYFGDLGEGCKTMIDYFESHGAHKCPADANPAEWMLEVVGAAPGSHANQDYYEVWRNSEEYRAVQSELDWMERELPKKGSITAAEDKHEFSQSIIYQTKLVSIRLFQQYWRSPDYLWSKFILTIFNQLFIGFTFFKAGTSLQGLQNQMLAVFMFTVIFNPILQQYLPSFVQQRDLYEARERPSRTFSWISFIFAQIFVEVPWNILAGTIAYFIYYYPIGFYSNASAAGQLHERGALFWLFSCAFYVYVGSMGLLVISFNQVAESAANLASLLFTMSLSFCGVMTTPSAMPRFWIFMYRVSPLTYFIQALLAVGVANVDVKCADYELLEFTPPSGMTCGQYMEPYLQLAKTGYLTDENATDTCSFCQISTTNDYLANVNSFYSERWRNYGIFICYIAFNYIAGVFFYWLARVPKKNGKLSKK
Chain of Pleiotropic ABC efflux transporter of multiple drugs (P33302 whole entry): as above

On to `NCCCCN1c2ccccc2Sc2ccc(Cl)cc21`, for which the IC50 in assay [1] was found to be 0.7 µM. Further, the INH worked out at 1.9 µM in assay [2], 1.9 µM with Saccharomyces cerevisiae [3] and 2.1 µM in assay [4]. For the same compound, the fractional inhibitory concentration index (FICI) with Saccharomyces cerevisiae [5] was 0.06.

As for `NCCCCN1c2ccccc2Sc2ccc(C(F)(F)F)cc21`, in assay [1], the IC50 came to 1.3 µM. For the same compound, the INH in assay [2] is 3.7 µM; in the assay with Saccharomyces cerevisiae [3] it was 4.6 µM; in assay [4], 4.6 µM.

Consider `NCCCCN1c2ccccc2Sc2ccccc21`, for which, in assay [1], inhibition was half-maximal at 3.1 µM (IC50). Further, the values for the INH (in assay [2]; in the assay on Saccharomyces cerevisiae [3]; in assay [4]) were 7 µM, 29 µM and 13.5 µM, respectively.

In the case of `NCCCN1c2ccccc2Sc2ccc(C(F)(F)F)cc21`, half-maximal inhibition in assay [1] (IC50) was put at 6.4 µM. The figures for the INH (in assay [2]; in the assay on Saccharomyces cerevisiae [3]; in assay [4]) were 7.7 µM, 6.5 µM and 6.9 µM, respectively.

In assay [1], `NCCCN1c2ccccc2Sc2ccccc21` gave an IC50 of 7.4 µM. In addition, the INH in assay [2] came out at 14.7 µM; in the assay with Saccharomyces cerevisiae [3], 36 µM; in assay [4], 12.4 µM.

For the compound `CSc1ccc2c(c1)N(CCC1CCCCN1C)c1ccccc1S2` (stereo not drawn), the values for the INH (in assay [2]; with Saccharomyces cerevisiae [3]; in assay [4]) were 17 µM, 26 µM and 19.4 µM, respectively.

Turning to `O=C(O)CCCCCCNC1c2ccccc2CCc2ccccc21` [AMINEPTINE], the IC50 in assay [1] was more than 400 µM. For the same compound, the INH (in assay [2]; in the assay on Saccharomyces cerevisiae [3]; in assay [4]) was more than 433 µM each time.

`CN(C)CCCN1c2ccccc2Sc2ccc(Cl)cc21` [CHLORPROMAZINE] came in with an IC50 in assay [1] of 4.5 µM. Besides, the INH worked out at 57 µM in assay [2], 57 µM in the assay with Saccharomyces cerevisiae [3] and 32 µM in assay [4].

Compound `CN(C)CC/C=C1/c2ccccc2Sc2ccc(Cl)cc21` [CHLORPROTHIXENE] showed an IC50 in assay [1] of 5.1 µM. In addition, the INH in assay [2] turned out to be 26 µM; with Saccharomyces cerevisiae [3], 53 µM; in assay [4] it was 22 µM.

In turn, `COc1ccc2c(c1)N(C[C@@H](C)CN(C)C)c1ccccc1S2` [DEXTROMEPROMAZINE] showed an IC50 in assay [1] of 9 µM. Besides, the INH in assay [2] turned out to be 101 µM; in the assay with Saccharomyces cerevisiae [3], 273 µM; in assay [4], 100 µM.

For `CCN(CC)CCN1c2ccccc2Sc2ccccc21` [DIETHAZINE], 10.3 µM corresponded to half-maximal inhibition in assay [1] (IC50). The INH in assay [2] was 331 µM; with Saccharomyces cerevisiae [3], 317 µM; in assay [4], 239 µM.

Regarding `OCCN1CCN(CCCN2c3ccccc3Sc3ccc(C(F)(F)F)cc32)CC1` [FLUPHENAZINE], the IC50 in assay [1] was found to be 1.7 µM. In addition, the INH amounted to 5.4 µM in assay [2], 12.4 µM with Saccharomyces cerevisiae [3] and 8.8 µM in assay [4]. In addition, the fractional inhibitory concentration index (FICI) with Saccharomyces cerevisiae [5] worked out at 0.09.

As to `CN(C)CCCN1c2ccccc2CCc2ccccc21` [IMIPRAMINE], 22 µM corresponded to half-maximal inhibition in assay [1] (IC50). In addition, the INH in assay [2] is 166 µM; with Saccharomyces cerevisiae [3], more than 433 µM; in assay [4], 198 µM.

`COc1ccc2c(c1)N(C[C@H](C)CN(C)C)c1ccccc1S2` [LEVOMEPROMAZINE] showed an IC50 in assay [1] of 9.6 µM. In addition, the INH in assay [2] is 128 µM; in the assay with Saccharomyces cerevisiae [3] it was 252 µM; in assay [4], 100 µM.

`NCCCN1c2ccccc2Sc2ccc(Cl)cc21` [NOR2-CHLORPROMAZINE] yielded an IC50 in assay [1] of 3.2 µM. Moreover, the INH in assay [2] was 4.2 µM; in the assay on Saccharomyces cerevisiae [3], 4.3 µM; in assay [4], 5.8 µM.

`OCCN1CCN(CCCN2c3ccccc3Sc3ccc(Cl)cc32)CC1` [PERPHENAZINE] registered a 50% inhibitory concentration (IC50) in assay [1] of 1.4 µM. Further, the INH in assay [2] was found to be 6.4 µM; in the assay with Saccharomyces cerevisiae [3], 17.2 µM; in assay [4], 13.1 µM.

`c1ccc2c(c1)Nc1ccccc1S2` [PHENOTHIAZINE] had an IC50 in assay [1] of more than 400 µM. In addition, the INH in assay [2] is more than 433 µM; in the assay with Saccharomyces cerevisiae [3], more than 433 µM; in assay [4] it was 90 µM.

In the case of `CN1CCN(CCCN2c3ccccc3Sc3ccc(Cl)cc32)CC1` [PROCHLORPERAZINE], it took 1.7 µM to reach half-maximal inhibition in assay [1] (IC50). The values for the INH (in assay [2]; in the assay on Saccharomyces cerevisiae [3]; in assay [4]) were 7.2 µM, 11 µM and 6.6 µM, respectively.

On to `CN(C)CCCN1c2ccccc2Sc2ccccc21` [PROMAZINE], for which the IC50 in assay [1] is 11.3 µM. Also, the INH in assay [2] came to 96 µM; with Saccharomyces cerevisiae [3], 278 µM; in assay [4], 131 µM.

In assay [1], `CC(CN1c2ccccc2Sc2ccccc21)N(C)C` (stereo not drawn) [PROMETHAZINE] returned an IC50 of 17.7 µM. The INH in assay [2] was 285 µM; with Saccharomyces cerevisiae [3] it was 275 µM; in assay [4], 117 µM.

With `CCSc1ccc2c(c1)N(CCCN1CCN(C)CC1)c1ccccc1S2` [THIETHYLPERAZINE], the IC50 in assay [1] was determined as 2.3 µM. The INH in assay [2] came out at 5.6 µM; with Saccharomyces cerevisiae [3] it was 9.4 µM; in assay [4], 3.2 µM.

For `CN1CCN(CCCN2c3ccccc3Sc3ccc(C(F)(F)F)cc32)CC1` [TRIFLUOPERAZINE], the IC50 in assay [1] was 1.4 µM. In addition, the values for the INH (in assay [2]; in the assay on Saccharomyces cerevisiae [3]; in assay [4]) were 8.3 µM, 9.8 µM and 6.9 µM, respectively.

In the case of `CN(C)CCCN1c2ccccc2Sc2ccc(C(F)(F)F)cc21` [TRIFLUPROMAZINE], inhibition in assay [1] was half-maximal at 4.9 µM (IC50). Moreover, the INH in assay [2] came to 47 µM; with Saccharomyces cerevisiae [3], 49 µM; in assay [4], 47 µM.
